Measurements: ChEMBL document CHEMBL3045176, “Occurrence of the antifeedant 14,15-dihydroajugapitin in the aerial parts of Ajuga iva from Algeria” (2000)

Tests used:
Spodoptera littoralis = assay: Antifeedant activity against final stadium larvae of Spodoptera littoralis in compound-treated sucrose-treated glass-fibre disks assessed as amount of disks eaten at 100 ppm after 18 hr by binary choice feeding bioassay; format: functional
Spodoptera frugiperda = assay: Antifeedant activity against final stadium larvae of Spodoptera frugiperda (fall armyworm) in compound-treated sucrose-treated glass-fibre discs assessed as amount of discs eaten at 100 ppm after 18 hr by binary choice feeding bioassay; format: functional

Compound	AFI (Spodoptera littoralis) [%]	AFI (Spodoptera frugiperda) [%]
CC[C@H](C)C(=O)O[C@H]1[C@@H](O)C[C@@H]2[C@@](C)([C@@H]3C[C@H]4CCO[C@H]4O3)[C@H](C)C[C@H](OC(C)=O)[C@@]2(COC(C)=O)[C@@]12CO2 [IVAIN IV]	48	61
CC[C@H](C)C(=O)O[C@H]1[C@H](O)C[C@@H]2[C@@](C)([C@@H]3C[C@H]4CCO[C@H]4O3)[C@H](C)C[C@H](OC(C)=O)[C@@]2(COC(C)=O)[C@@]12CO2 [14,15-DIHYDROAJUGAPITIN]	76	74
